# Measurements from patent US20100029654A1, “CARDIOVASCULAR COMPOSITIONS AND USE OF THE SAME FOR THE TREATMENT OF ALZHEIMER'S DISEASE” (MOUNT SINAI SCHOOL OF MEDICINE, priority 2006, published 2010).
# Experiment: stability of valsartan salt (solid, aqueous; TLC)
# Format: physicochemical
# Conditions: 50 and 200 mg/L, 3-10 week old solutions, room temperature, dark
# Procedure: The solution is cooled to room temperature slowly without external cooling to discourage precipitation of the drug.
# The solution was then cooled to room temperature slowly without external cooling to discourage precipitation of the drug. […] Quality was assessed in 3-10 week old solutions stored at room temperature in dark compartments. Drinking solutions for the in vivo treatments were freshly prepared twice a week. Liquid consumption and animal body weight were monitored weekly throughout the study.
compound,measurement,value
CCCCC(=O)N(Cc1ccc(-c2ccccc2-c2nnn[nH]2)cc1)[C@H](C(=O)O)C(C)C [Sodium valsartan],stability of drinking solutions by TLC analysis,no change in the recovered compound
